Measurements from US9365540B2, “Benzimidazole derivatives as MCH receptor antagonists” (Takeda Pharmaceutical Company Limited, priority 2012, dated 2016).

What was measured:
[1] = biological target: T1, human MCH receptor 1 (MCHR1) (Homo sapiens, UniProt Q99705); test: human MCH receptor 1 (MCHR1) competitive binding assay with [125I]-MCH(4-19); settings: test compound 0.1 μM, human MCHR1-expressing CHO cell membrane fraction, read-out: Binding inhibition rate % (0.1 μM)
T1 construct: expressed in transfected cells; host or cells: CHO cell clone 57 (membrane fraction)
How it was run: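 Membranes from CHO cells expressing human MCHR1 incubated with [125I]-MCH(4-19) and test compound in 20 mM Tris-HCl pH 7.5/5 mM EDTA with protease inhibitors, 1 hr at room temperature. Bound radioactivity collected on PEI-treated GF/C filters; % inhibition at 0.1 μM compound, nonspecific binding set with cold MCH(1-19).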

[2] = biological target: T2, human MCHR1 (Homo sapiens, UniProt Q99705); test: MCH receptor 1 antagonistic activity, Ca2+ mobilization assay; type: cell-based; settings: CHO, test compound 0.1 μM; human MCHR1-expressing CHO cells (clone #4); ligand MCH(4-19) 2 nM; read-out: Inhibitory rate % (0.1 μM)
T2 construct: expressed in transfected cells; host or cells: CHO dhfr- cells, clone #4
Protocol: Measurement of MCH Receptor 1 Antagonistic Activity of Test Compound Using Ca^2+ Mobilization Assay Using an expression vector plasmid introduced with human MCHR1 gene for expression in animal cells, human MCHR1 gene was introduced into CHO cells (CHO dhfr^−) by Lipofectamine LTX (Invitrogen). The cells were cultured in selection MEMα medium [445 mL of MEMα medium without nucleic acid and added with 5 mL of Penicillin-Streptomycin (Invitrogen) and 50 mL of dialyzed fetal bovine serum]. Colony 24 clones grown in the selection medium, which were human MCHR1 gene-expressing CHO cell candidates, were selected. […] In the following test, this human MCHR1-expressing CHO cell (clone #4) was used. An integrated dispensing function fluorometer (CellLux, PerkinElmer) was used for Ca^2+ mobilization assay. […] The medium was removed, and the cells were washed with phosphate buffered saline (PBS). […] The plate was set on a plate reader. […] The inhibition rates (%) of test compounds (0.1 μM) as antagonist activity measured using human MCHR1-expressing CHO cells (clone #4) are shown in the following Table 3.

T2 sequence (Q99705 whole entry): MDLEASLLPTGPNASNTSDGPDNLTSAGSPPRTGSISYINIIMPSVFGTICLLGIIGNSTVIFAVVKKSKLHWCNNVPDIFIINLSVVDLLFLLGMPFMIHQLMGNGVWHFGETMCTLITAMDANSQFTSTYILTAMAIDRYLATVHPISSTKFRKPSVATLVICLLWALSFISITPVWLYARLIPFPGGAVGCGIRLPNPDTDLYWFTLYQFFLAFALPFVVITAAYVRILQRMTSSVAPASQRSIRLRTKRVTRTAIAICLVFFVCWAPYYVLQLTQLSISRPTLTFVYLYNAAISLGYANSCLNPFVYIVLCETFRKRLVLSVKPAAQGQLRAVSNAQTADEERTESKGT
T1 sequence (Q99705 whole entry): as above

Row | inhibition at 0.1 µM [1] [%] | inhibition at 0.1 µM [2] [%] | Compound
1 | 58 | 80 | Cn1c(C2CC2)nc2ccc(-n3ccc(OCc4cccs4)cc3=O)cc21 [Example 124, 1-(2-Cyclopropyl-1-methyl-1H-benzimidazol-6-yl)-4-(2-thienylmethoxy)pyridin-2(1H)-one]
2 | 80 | 77 | Cn1c(C2CC2)nc2ccc(-n3ccc(OCc4cccc(Cl)c4)cc3=O)cc21 [Example 127, 4-((3-Chlorobenzyl)oxy)-1-(2-cyclopropyl-1-methyl-1H-benzimidazol-6-yl)pyridin-2(1H)-one]
3 | 79 | 99 | Cc1c(C2CC2)nc2ccc(-n3ccc(OCc4cccc(F)c4)cc3=O)cn12 [Example 130, 1-(2-Cyclopropyl-3-methylimidazo[1,2-a]pyridin-6-yl)-4-((3-fluorobenzyl)oxy)pyridin-2(1H)-one]
4 | 51 | 96 | Cc1c(C2CC2)nc2ccc(-n3ccc(OCc4cccs4)cc3=O)cn12 [Example 132, 1-(2-Cyclopropyl-3-methylimidazo[1,2-a]pyridin-6-yl)-4-(2-thienylmethoxy)pyridin-2(1H)-one]
5 | 79 | 98 | Cc1c(C2CC2)nc2ccc(-n3ccc(OCc4ccsc4)cc3=O)cn12 [Example 133, 1-(2-Cyclopropyl-3-methylimidazo[1,2-a]pyridin-6-yl)-4-(3-thienylmethoxy)pyridin-2(1H)-one]
6 | 71 | 95 | Cn1c(C2CC2)nc2ccc(-n3ccc(OCc4ccc(F)s4)cc3=O)cc21 [Example 157, 1-(2-Cyclopropyl-1-methyl-1H-benzimidazol-6-yl)-4-((5-fluorothiophen-2-yl)methoxy)pyridin-2(1H)-one]
7 | 87 | 107 | Cn1c(C2CC2)nc2ccc(-n3ccc(OCc4ccc(C(F)(F)F)s4)cc3=O)cc21 [Example 159, 1-(2-Cyclopropyl-1-methyl-1H-benzimidazol-6-yl)-4-((5-(trifluoromethyl)thiophen-2-yl)methoxy)pyridin-2(1H)-one]
8 | 92 | 102 | Cc1c(C2CC2)nc2ccc(-n3ccc(OCc4csc(Cl)c4)cc3=O)cn12 [Example 164, 4-((5-Chlorothiophen-3-yl)methoxy)-1-(2-cyclopropyl-3-methylimidazo[1,2-a]pyridin-6-yl)pyridin-2(1H)-one]
9 | 84 | 103 | Cc1c(C2CC2)nc2ccc(-n3ccc(OCc4cc(Cl)cs4)cc3=O)cn12 [Example 168, 4-((4-Chlorothiophen-2-yl)methoxy)-1-(2-cyclopropyl-3-methylimidazo[1,2-a]pyridin-6-yl)pyridin-2(1H)-one]
10 | 23 | 62 | Cc1c(C2CC2)nc2ccc(-n3ccc(COc4ccc(F)cc4)cc3=O)cn12 [Example 170, 1-(2-Cyclopropyl-3-methylimidazo[1,2-a]pyridin-6-yl)-4-((4-fluorophenoxy)methyl)pyridin-2(1H)-one]
11 | 97 | 97 | Cc1c(C2CC2)nc2ccc(-n3ccc(OCc4csc(Br)c4)cc3=O)cn12 [Example 177, 4-((5-Bromo-3-thienyl)methoxy)-1-(2-cyclopropyl-3-methylimidazo[1,2-a]pyridin-6-yl)pyridin-2(1H)-one]
12 | 74 | 69 | Cc1c(C2CC2)nc2ccc(-n3ccc(OCc4ccc(C(F)F)s4)cc3=O)cn12 [Example 178, 1-(2-Cyclopropyl-3-methylimidazo[1,2-a]pyridin-6-yl)-4-((5-(difluoromethyl)-2-thienyl)methoxy)pyridin-2(1H)-one]
13 | 64 | 94 | Cc1c(C2CC2)nc2ccc(-n3ccc(OCc4csc(C(F)(F)F)n4)cc3=O)cn12 [Example 179, 1-(2-Cyclopropyl-3-methylimidazo[1,2-a]pyridin-6-yl)-4-((2-(trifluoromethyl)-1,3-thiazol-4-yl)methoxy)pyridin-2(1H)-one]
14 | 64 | 99 | Cc1c(C2CC2)nc2ccc(-n3ccc(OCc4ccc(C(F)(F)F)o4)cc3=O)cn12 [Example 180, 1-(2-Cyclopropyl-3-methylimidazo[1,2-a]pyridin-6-yl)-4-((5-(trifluoromethyl)-2-furyl)methoxy)pyridin-2(1H)-one]
15 | 57 | 21 | Cc1c(C2CC2)nc2ccc(-n3ccc(NCc4ccc(Cl)s4)cc3=O)cn12 [Example 181, 4-(((5-Chloro-2-thienyl)methyl)amino)-1-(2-cyclopropyl-3-methylimidazo[1,2-a]pyridin-6-yl)pyridin-2(1H)-one]
16 | 91 | 75 | Cc1c(C2CC2)nc2ccc(-n3ccc(OCc4csc(C(F)(F)F)c4)cc3=O)cn12 [Example 183, 1-(2-Cyclopropyl-3-methylimidazo[1,2-a]pyridin-6-yl)-4-((5-(trifluoromethyl)-3-thienyl)methoxy)pyridin-2(1H)-one]
17 | 25 | 74 | Cc1c(C2CC2)nc2ccc(-n3ccc(NCc4ccc(Cl)cc4)cc3=O)cn12 [Example 186, 4-((4-Chlorobenzyl)amino)-1-(2-cyclopropyl-3-methylimidazo[1,2-a]pyridin-6-yl)pyridin-2(1H)-one]
18 | 86 | 100 | Cc1c(C2CC2)nc2ccc(-n3ccc(OCc4csc(Br)n4)cc3=O)cn12 [Example 189, 4-((2-Bromo-1,3-thiazol-4-yl)methoxy)-1-(2-cyclopropyl-3-methylimidazo[1,2-a]pyridin-6-yl)pyridin-2(1H)-one]
19 | 85 | 98 | Cc1c(C2CC2)nc2ccc(-n3ccc(OCc4ccc(Br)cc4)cc3=O)cn12 [Example 192, 4-((4-Bromobenzyl)oxy)-1-(2-cyclopropyl-3-methylimidazo[1,2-a]pyridin-6-yl)pyridin-2(1H)-one]
20 | 89 | 99 | Cc1c(C2CC2)nc2ccc(-n3ccc(OCc4nc(C(F)(F)F)cs4)cc3=O)cn12 [Example 193, 1-(2-Cyclopropyl-3-methylimidazo[1,2-a]pyridin-6-yl)-4-((4-(trifluoromethyl)-1,3-thiazol-2-yl)methoxy)pyridin-2(1H)-one]
21 | 82 | 100 | Cc1c(C2CC2)nc2ccc(-n3ccc(OCc4nc(Br)cs4)cc3=O)cn12 [Example 194, 4-((4-Bromo-1,3-thiazol-2-yl)methoxy)-1-(2-cyclopropyl-3-methylimidazo[1,2-a]pyridin-6-yl)pyridin-2(1H)-one]
22 | 67 | 104 | Cn1c(C2CC2)nc2ccc(-n3ccc(OCc4ccc(Cl)o4)cc3=O)cc21 [Example 202, 4-((5-Chloro-2-furyl)methoxy)-1-(2-cyclopropyl-1-methyl-1H-benzimidazol-6-yl)pyridin-2(1H)-one]
23 | 89 | 103 | Cn1c(C2CC2)nc2ccc(-n3ccc(OCc4cc(Cl)cs4)cc3=O)cc21 [Example 228, 4-((4-Chlorothiophen-2-yl)methoxy)-1-(2-cyclopropyl-1-methyl-1H-benzimidazol-6-yl)pyridin-2(1H)-one]
